Source: patent US20250375444A1, “METHOD OF TREATING ALZHEIMER’S DISEASE” (AmyriAD Pharma, Inc., priority 2021, published 2025)
“Also recorded” adds a separate entry of the source. Read-outs that look alike come from different tables or passages of the source.

What was measured:
[1] = system: Aβ-like deposits; settings: in vivo; cited from earlier work
[2] = system: Ca^2+/calmodulin-dependent protein kinase II (CaMK II); settings: cited from earlier work
[3] = system: ubiquitin-proteasome system pathway; settings: cited from earlier work
[4] = system: protein kinase C; settings: cited from earlier work
[5] = system: subjects having probable AD; settings: cited from earlier work
[6] = system: nicotine-stimulated release of ACh
[7] = system: amyloid precursor protein; settings: cited from earlier work
[8] = system: pro-ADAM10 and/or BACE protein; settings: cited from earlier work
[9] = system: AD subjects; assay: 12-week open-label multicenter safety extension study (Study 401) of AD101
Method: (§1) Subjects were titrated as follows: all subjects receive 60 mg once daily for the first month, 120 mg once daily for the second month and 180 mg once daily for the third month. Dose increases were dependent on the subject's tolerability of the previous dose.

[10] = system: AD subjects; assay: Safety extension study: subjects started on memantine hydrochloride; assay type: in vivo, human; settings: for Adverse Events during Memantine Co-administration: 401: 180 mg AD101
Method: as §1

[11] = system: acetylcholine (ACh) levels; settings: rodent brains; cited from earlier work
[12] = system: long-term potentiation (LTP); settings: cited from earlier work
[13] = system: extracellular ACh and dopamine concentrations
[14] = Total, unique subjects (N = 293)
[15] = Total, unique subjects (N = 293), denominator 293
[16] = all doses, safety population 293 subjects

O=C1N=C2C=CC=CN2C12Cc1ccccc1C2 [AD101, 1′,3′-dihydro-2H-spiro[imidazo[1,2α]pyridine-3,2′-inden]-2-one]
Accumulation of Aβ-like deposits [1]: decreases accumulation | Activity of CaMK II [2]: increased activity | Activity of the ubiquitin-proteasome system pathway [3]: enhance the activity | Activity of protein kinase C [4]: increased activity | Dose response in primary outcome measures ([5]; 10, 60 and 120 mg per day analyzed separately): no discernable dose response | AD101-related safety concerns ([5]; up to 120 mg QD, 12 weeks, with 10 mg donepezil hydrochloride QD): No significant AD101-related safety concerns were identified | Nicotine-stimulated release of ACh [6]: potentiates | Cleavage of amyloid precursor protein [7]: induce cleavage | Level of pro-ADAM10 and/or BACE protein [8]: decrease the level | Discontinued Early ([9]; 60 mg QD (N = 293)): 16 n | Discontinued Early: Adverse Event ([9]; 60 mg QD (N = 293)): 8 n | Discontinued Early: Adverse Event ([9]; 60 mg QD (N = 293), denominator 293): (2.7) % | Discontinued Early ([9]; 120 mg QD (N = 276)): 14 n | Discontinued Early: Adverse Event ([9]; 120 mg QD (N = 276)): 4 n | Discontinued Early: Adverse Event ([9]; 120 mg QD (N = 276), denominator 293): (1.4) % | AE: Fatigue ([9]; 180 mg (N = 243)): 0 n | AE: Somnolence ([9]; 180 mg (N = 243)): 0 n | Discontinued Early ([9]; 180 mg QD (N = 243)): 6 n | Discontinued Early: Adverse Event ([9]; 180 mg QD (N = 243)): 5 n | Discontinued Early: Adverse Event ([9]; 180 mg QD (N = 243), denominator 293): (1.7) % | Safety of 180 mg QD versus lower doses ([9]; 180 mg QD vs 60 mg QD and 120 mg QD): at least as safe as | New safety or tolerability issues ([9]; 3-month open-label extension, 60 to 180 mg QD): No new safety or tolerability issues were identified | Pattern of nature or frequency of specific AE related to dose ([9]; 60, 120, 180 mg): There does not appear to be any pattern related to AD101 dose | Relationship of SAEs to study drug (investigator) ([9]; SAE #00036: syncope, person on 180 mg): unrelated to study drug with the exception of SAE #00036 | Discontinued Early [9, 14]: 36 n | Discontinued Early: Adverse Event [9, 14]: 17 n | Subjects with any AE [9, 14]: 51.2% | Discontinued Early [9, 15]: (12.3) % | Discontinued Early: Adverse Event [9, 15]: (5.8) % | Serious Adverse Events (SAEs), number of events [9, 16]: 17 | Subjects with Serious Adverse Events [9, 16]: 17 subjects | SAE Event (individual subject) ([9]; dose at time of event 60 mg): Asthma; also recorded: Chest Pain; also recorded: Fractured Wrist; also recorded: Seizure; also recorded: Syncope (vasovagal); also recorded: Vestibular neuronitis; also recorded: GI bleed 2°to | SAE Event (individual subject) ([9]; dose at time of event 120 mg): Lightheaded; also recorded: Fractured right; also recorded: Fx Left | SAE Event (individual subject) ([9]; dose at time of event 180 mg): Syncope; also recorded: Fractured; also recorded: Chest Pain; also recorded: Pneumonia/Pulmonary | SAE Event (individual subject) ([9]; dose at time of event N/A (10 days after completing 401)): Multiple CVAs | Death ([9]; multiple cerebral vascular accidents, deemed unrelated, 10 days post-study after 60, 120 and 180 mg for 4 weeks each): 1 | SAEs by dose at time of event ([9]; on 60 mg AD101): 7 | SAEs by dose at time of event ([9]; on 120 mg AD101): 5 | SAEs by dose at time of event ([9]; on 180 mg AD101): 4 | Laboratory or vitals sign abnormalities ([10]; 5 subjects taking memantine hydrochloride, AD101 up to 180 mg): no clinically significant laboratory or vitals sign abnormalities were observed | Adverse Events during Memantine Co-administration ([10]; Subject 03-2003, memantine 5 mg BID ongoing): No new AEs. | Adverse Events during Memantine Co-administration ([10]; Subject 14-2108, memantine titrated 5 mg QD to 10 mg BID over 4 weeks): No new AEs. | Adverse Events during Memantine Co-administration ([10]; Subject 14-2178, memantine titrated 5 mg QD to 10 mg BID over 4 weeks): Sinus headache ×1 day,; also recorded: Dizzy/lightheaded over 18; also recorded: Vomiting ×1 day, occurred 2 | Adverse Events during Memantine Co-administration ([10]; Subject 18-2018, memantine 10 mg QD): Decreased appetite ×9 days; also recorded: UTI ×7 days began 30 days; also recorded: Confusion ×8 days, began 38; also recorded: Anxiety, ongoing at; also recorded: URI ×14 days began 30 days | Adverse Events during Memantine Co-administration ([10]; Subject 18-2122, memantine 10 mg QD): No new AEs. | Acetylcholine (ACh) levels [11]: increase | Long-term potentiation (LTP) [12]: enhancement | Extracellular ACh concentrations ([13]; cerebral cortex): increases | Extracellular ACh concentrations ([13]; hippocampus): increases | Extracellular dopamine concentrations ([13]; hippocampus): increases
